# Experimental data published in ChEMBL document CHEMBL3763135, “Synthesis and evaluation of thiophene-based guanylhydrazones (iminoguanidines) efficient against panel of voriconazole-resistant fungal isolates” (Bioorg Med Chem, 2016).
# Calls of active or inactive are those of the source. The calls are words filed in the database; no cut-off is given here.
# Assays:
# [1] = system: Candida albicans; assay: Antifungal activity against Candida albicans ATCC 10231 by broth dilution method; type: functional
# [2] = system: Candida albicans; assay: Antifungal activity against Candida albicans CA5 by broth dilution method; type: functional
# [3] = system: Pichia kudriavzevii; assay: Antifungal activity against Candida krusei ATCC 34135 by broth dilution method; type: functional
# [4] = system: Candida parapsilosis; assay: Antifungal activity against Candida parapsilosis C27 by broth dilution method; type: functional; conditions: Lodderomyces parapsilosis
# [5] = system: Aspergillus fumigatus; assay: Antifungal activity against Aspergillus fumigatus ATCC 13073 by broth dilution method; type: functional
# [6] = system: Fusarium oxysporum; assay: Antifungal activity against Fusarium oxysporum AB18 by broth dilution method; type: functional
# [7] = system: Microsporum canis; assay: Antifungal activity against Microsporum canis DMT2 by broth dilution method; type: functional
# [8] = system: MRC5; assay: Cytotoxicity against human MRC5 cells after 48 hrs by MTT assay; type: cell-based; conditions: MRC5, 48 h
# [9] = system: Candida albicans; assay: Antifungal activity against Candida albicans CA5 assessed as fungal growth at sub-MIC measured after 24 hrs by time-kill dependence-based spectrophotometric analysis relative to DMSO control; type: functional, organism-based
# [10] = system: Candida albicans; assay: Induction of DNA intercalation with Candida albicans genomic DNA at 25 ug/ml after 12 hrs by ethidium bromide staining based gel electrophoresis method
# [11] = system: Candida albicans; assay: Antibiofilm activity against Candida albicans assessed as inhibition of Spider medium-induced hyphae formation at sub-MIC after 24 hrs by propidium iodide and FITC-conjugated concanavaline A staining based fluorescence microscopy; type: functional, organism-based
# [12] = system: Pichia kudriavzevii; assay: Antibiofilm activity against Pichia kudriavzevii ATCC 34135 assessed as disruption of preformed biofilm after 24 hrs by concanavalin A-FITC-staining based fluorescence microscopic analysis; type: functional
# [13] = system: Candida parapsilosis; assay: Antibiofilm activity against Candida parapsilosis C27 assessed as disruption of preformed biofilm after 24 hrs by concanavalin A-FITC-staining based fluorescence microscopic analysis; type: functional
# [14] = Toxicity against zebrafish embryo assessed as dead embryos at 50 ug/ml measured at 96 hrs post fertilization by inverted microscopic analysis; type: organism-based, Danio rerio; conditions: read-out: Activity
# [15] = Toxicity against zebrafish embryo assessed as dead embryos at 25 ug/ml measured at 96 hrs post fertilization by inverted microscopic analysis; type: organism-based, Danio rerio; conditions: read-out: Activity
# [16] = Toxicity against zebrafish embryo assessed as dead embryos at 10 ug/ml measured at 96 hrs post fertilization by inverted microscopic analysis; type: organism-based, Danio rerio; conditions: read-out: Activity
# [17] = Toxicity against zebrafish embryo assessed as dead embryos at 5 ug/ml measured at 96 hrs post fertilization by inverted microscopic analysis; type: organism-based, Danio rerio; conditions: read-out: Activity
# [18] = species on record: Danio rerio; assay: Toxicity against zebrafish embryo assessed as teratogenic embryos at 50 ug/ml measured at 96 hrs post fertilization by inverted microscopic analysis; type: organism-based; conditions: in vivo
# [19] = species on record: Danio rerio; assay: Toxicity against zebrafish embryo assessed as teratogenic embryos at 10 ug/ml measured at 96 hrs post fertilization by inverted microscopic analysis; type: organism-based; conditions: in vivo
# [20] = species on record: Danio rerio; assay: Toxicity against zebrafish embryo assessed as teratogenic embryos at 5 ug/ml measured at 96 hrs post fertilization by inverted microscopic analysis; type: organism-based; conditions: in vivo
# [21] = species on record: Danio rerio; assay: Toxicity against zebrafish embryo assessed as effect on tail tip at 10 ug/ml measured at 96 hrs post fertilization by inverted microscopic analysis; type: organism-based; conditions: in vivo
# [22] = species on record: Danio rerio; assay: Toxicity against zebrafish embryo assessed as effect on tail tip at 5 ug/ml measured at 96 hrs post fertilization by inverted microscopic analysis; type: organism-based; conditions: in vivo
# [23] = species on record: Danio rerio; assay: Toxicity against zebrafish embryo assessed as effect on tail tip at 2.5 ug/ml measured at 96 hrs post fertilization by inverted microscopic analysis; type: organism-based; conditions: in vivo
# [24] = species on record: Danio rerio; assay: Toxicity against zebrafish embryo assessed as growth retardation at 5 ug/ml measured at 96 hrs post fertilization by inverted microscopic analysis; type: organism-based; conditions: in vivo
# [25] = species on record: Danio rerio; assay: Toxicity against zebrafish embryo assessed as growth retardation at 2.5 ug/ml measured at 96 hrs post fertilization by inverted microscopic analysis; type: organism-based; conditions: in vivo
# [26] = Toxicity against zebrafish embryo measured at 96 hrs post fertilization by inverted microscopic analysis; type: organism-based, Danio rerio; conditions: zebrafish embryos
# [27] = species on record: Danio rerio; assay: Toxicity against zebrafish embryo assessed as normal embryos at 50 ug/ml measured at 96 hrs post fertilization by inverted microscopic analysis; type: organism-based; conditions: in vivo
# [28] = species on record: Danio rerio; assay: Toxicity against zebrafish embryo assessed as normal embryos at 5 ug/ml measured at 96 hrs post fertilization by inverted microscopic analysis; type: organism-based; conditions: in vivo
# [29] = species on record: Danio rerio; assay: Toxicity against zebrafish embryo assessed as normal embryos at 2.5 ug/ml measured at 96 hrs post fertilization by inverted microscopic analysis; type: organism-based; conditions: in vivo
# [30] = species on record: Danio rerio; assay: Toxicity against zebrafish embryo assessed as effect on notochord at 5 ug/ml measured at 96 hrs post fertilization by inverted microscopic analysis; type: organism-based; conditions: in vivo
# [31] = species on record: Danio rerio; assay: Toxicity against zebrafish embryo assessed as effect on notochord at 2.5 ug/ml measured at 96 hrs post fertilization by inverted microscopic analysis; type: organism-based; conditions: in vivo
# [32] = species on record: Danio rerio; assay: Toxicity against zebrafish embryo assessed as effect on eyes at 5 ug/ml measured at 96 hrs post fertilization by inverted microscopic analysis; type: organism-based; conditions: in vivo
# [33] = species on record: Danio rerio; assay: Toxicity against zebrafish embryo assessed as effect on otoliths at 10 ug/ml measured at 96 hrs post fertilization by inverted microscopic analysis; type: organism-based; conditions: in vivo
# [34] = species on record: Danio rerio; assay: Toxicity against zebrafish embryo assessed as effect on otoliths at 2.5 ug/ml measured at 96 hrs post fertilization by inverted microscopic analysis; type: organism-based; conditions: in vivo
# [35] = system: Danio rerio; assay: Toxicity against zebrafish embryo assessed as pericardial edema at 10 ug/ml measured at 96 hrs post fertilization by inverted microscopic analysis; type: organism-based; conditions: in vivo
# [36] = system: Danio rerio; assay: Toxicity against zebrafish embryo assessed as pericardial edema at 5 ug/ml measured at 96 hrs post fertilization by inverted microscopic analysis; type: organism-based; conditions: in vivo
# [37] = system: Danio rerio; assay: Toxicity against zebrafish embryo assessed as pericardial edema at 2.5 ug/ml measured at 96 hrs post fertilization by inverted microscopic analysis; type: organism-based; conditions: in vivo
# [38] = system: Danio rerio; assay: Toxicity against zebrafish embryo assessed as yolk edema at 10 ug/ml measured at 96 hrs post fertilization by inverted microscopic analysis; type: organism-based; conditions: in vivo
# [39] = system: Danio rerio; assay: Toxicity against zebrafish embryo assessed as yolk edema at 5 ug/ml measured at 96 hrs post fertilization by inverted microscopic analysis; type: organism-based; conditions: in vivo
# [40] = system: Danio rerio; assay: Toxicity against zebrafish embryo assessed as yolk edema at 2.5 ug/ml measured at 96 hrs post fertilization by inverted microscopic analysis; type: organism-based; conditions: in vivo
# [41] = species on record: Danio rerio; assay: Toxicity against zebrafish embryo assessed as effect on heart beat at 10 ug/ml measured at 96 hrs post fertilization by inverted microscopic analysis; type: organism-based; conditions: in vivo
# [42] = species on record: Danio rerio; assay: Toxicity against zebrafish embryo assessed as effect on heart beat at 2.5 ug/ml measured at 96 hrs post fertilization by inverted microscopic analysis; type: organism-based; conditions: in vivo
# [43] = species on record: Danio rerio; assay: Toxicity against zebrafish embryo assessed as effect on blood circulation at 5 ug/ml measured at 96 hrs post fertilization by inverted microscopic analysis; type: organism-based; conditions: in vivo
# [44] = species on record: Danio rerio; assay: Toxicity against zebrafish embryo assessed as unhatched embryos at 10 ug/ml measured at 96 hrs post fertilization by inverted microscopic analysis; type: organism-based; conditions: in vivo
# [45] = species on record: Danio rerio; assay: Toxicity against zebrafish embryo assessed as unhatched embryos at 5 ug/ml measured at 96 hrs post fertilization by inverted microscopic analysis; type: organism-based; conditions: in vivo
# [46] = species on record: Danio rerio; assay: Toxicity against zebrafish embryo assessed as unhatched embryos at 2.5 ug/ml measured at 96 hrs post fertilization by inverted microscopic analysis; type: organism-based; conditions: in vivo
# [47] = species on record: Danio rerio; assay: Toxicity against zebrafish embryo assessed as head malformation at 2.5 ug/ml measured at 96 hrs post fertilization by inverted microscopic analysis; type: organism-based; conditions: in vivo
# [48] = species on record: Danio rerio; assay: Toxicity against zebrafish embryo assessed as skeletal deformities at 10 ug/ml measured at 96 hrs post fertilization by inverted microscopic analysis; type: organism-based; conditions: in vivo
structure (smiles),measurement,setting,value
Cl.Cl.N=C(N)N/N=C/c1ccc(-c2ccc(/C=N/NC(=N)N)s2)cc1,MIC,[1],3.9 µg/mL
same,MIC,[2],0.5 µg/mL
same,MIC,[3],25 µg/mL
same,MIC,[4],50 µg/mL
same,MIC,[5],25 µg/mL
same,MIC,[6],> 250 µg/mL
same,MIC,[7],0.97 µg/mL
same,IC50,[8],10 µg/mL
same,Activity,[9],inactive
same,Activity,[10],Active
same,Activity,[11],Active
same,MBEC,[12],500 µg/mL
same,MBEC,[13],500 µg/mL
same,"mortality at 96 h, 50 ug/ml",[14],3.33%
same,"mortality at 96 h, 25 ug/ml",[15],3.33%
same,"mortality at 96 h, 10 ug/ml",[16],0%
same,"mortality at 96 h, 5 ug/ml",[17],0%
same,Activity,[18],0%
same,Activity,[19],0%
same,Activity,[20],0%
same,Activity,[21],0%
same,Activity,[22],0%
same,Activity,[23],0%
same,Activity,[24],0%
same,Activity,[25],0%
same,LC50 at 96 h,[26],> 50 µg/mL
same,Activity,[27],96.67%
same,Activity,[28],100%
same,Activity,[29],100%
same,Activity,[30],0%
same,Activity,[31],0%
same,Activity,[32],0%
same,Activity,[33],0%
same,Activity,[34],0%
same,Activity,[35],0%
same,Activity,[36],0%
same,Activity,[37],0%
same,Activity,[38],0%
same,Activity,[39],0%
same,Activity,[40],0%
same,Activity,[41],0%
same,Activity,[42],0%
same,Activity,[43],0%
same,Activity,[44],0%
same,Activity,[45],0%
same,Activity,[46],0%
same,Activity,[47],0%
same,Activity,[48],0%
Cl.N=C(N)N/N=C/c1ccc(-c2ccc(Br)cc2)s1,MIC,[1],3.12 µg/mL
same,MIC,[2],1.56 µg/mL
same,MIC,[3],1.56 µg/mL
same,MIC,[4],3.9 µg/mL
same,MIC,[5],6.25 µg/mL
same,MIC,[6],3.9 µg/mL
same,MIC,[7],0.25 µg/mL
same,IC50,[8],2 µg/mL
same,Activity,[9],inactive
same,Activity,[10],Active
same,Activity,[11],Active
same,MBEC,[12],125 µg/mL
same,MBEC,[13],125 µg/mL
same,"mortality at 96 h, 50 ug/ml",[14],100%
same,"mortality at 96 h, 25 ug/ml",[15],73.3%
same,"mortality at 96 h, 10 ug/ml",[16],30%
same,"mortality at 96 h, 5 ug/ml",[17],10%
same,Activity,[18],0%
same,Activity,[19],23.33%
same,Activity,[20],10%
same,Activity,[21],0%
same,Activity,[22],0%
same,Activity,[23],0%
same,Activity,[24],0%
same,Activity,[25],0%
same,LC50 at 96 h,[26],14.1 µg/mL
same,Activity,[27],0%
same,Activity,[28],80%
same,Activity,[29],100%
same,Activity,[30],0%
same,Activity,[31],0%
same,Activity,[32],0%
same,Activity,[33],0%
same,Activity,[34],0%
same,Activity,[35],33.33%
same,Activity,[36],11.11%
same,Activity,[37],0%
same,Activity,[38],0%
same,Activity,[39],0%
same,Activity,[40],0%
same,Activity,[41],0%
same,Activity,[42],0%
same,Activity,[43],0%
same,Activity,[44],0%
same,Activity,[45],0%
same,Activity,[46],0%
same,Activity,[47],0%
same,Activity,[48],0%
Cc1ccc(-c2ccc(/C=N/NC(=N)N)s2)cc1.Cl,MIC,[1],0.9 µg/mL
same,MIC,[2],0.5 µg/mL
same,MIC,[3],3.12 µg/mL
same,MIC,[4],3.9 µg/mL
same,MIC,[5],6.25 µg/mL
same,MIC,[6],7.8 µg/mL
same,MIC,[7],1.56 µg/mL
same,IC50,[8],2.5 µg/mL
same,Activity,[9],inactive
same,Activity,[10],Active
same,Activity,[11],Active
same,MBEC,[12],250 µg/mL
same,MBEC,[13],125 µg/mL
same,"mortality at 96 h, 50 ug/ml",[14],100%
same,"mortality at 96 h, 25 ug/ml",[15],100%
same,"mortality at 96 h, 10 ug/ml",[16],50%
same,"mortality at 96 h, 5 ug/ml",[17],20%
same,Activity,[18],0%
same,Activity,[19],50%
same,Activity,[20],80%
same,Activity,[21],0%
same,Activity,[22],0%
same,Activity,[23],0%
same,Activity,[24],0%
same,Activity,[25],0%
same,LC50 at 96 h,[26],8.2 µg/mL
same,Activity,[27],0%
same,Activity,[28],0%
same,Activity,[29],56.67%
same,Activity,[30],0%
same,Activity,[31],0%
same,Activity,[32],0%
same,Activity,[33],100%
same,Activity,[34],0%
same,Activity,[35],100%
same,Activity,[36],100%
same,Activity,[37],7.41%
same,Activity,[38],0%
same,Activity,[39],0%
same,Activity,[40],0%
same,Activity,[41],0%
same,Activity,[42],0%
same,Activity,[43],0%
same,Activity,[44],0%
same,Activity,[45],0%
same,Activity,[46],0%
same,Activity,[47],0%
same,Activity,[48],6.67%
